Experimental data as given in patent US7531195B2, “Schisandrin B preparation” (priority 2005, dated 2009).
Marks after values point to notes of the source that are not given here.

Tests used:
Myocardial Mitochondria = experiment: Myocardial mitochondrial ATP generation capacity, old male and female rats; assay type: in vivo, rat; conditions: liposome-encapsulated in drinking water, 10 mg/kg daily, 35 days
Protocol: Aged male and female rats (˜12 months old) were administered with liposome-encapsulated (−) Schisandrin B in drinking water for 35 days, with the daily dose estimated to be 10 mg/kg.
Male/Female adult Sprague-Dawley rats (˜12 months old) were maintained under a 12-h dark/light cycle at about 22° C. and allowed food and water ad libitum. Animals were randomly divided into groups, with at least 5 animals in each. In the pretreatment groups, rats were treated with liposome-encapsulated (−) Schisandrin B in drinking water for 35 days, with the estimated daily dose of 10 mg/kg. Control animals received empty liposomes-containing drinking water. Twenty-four hours following the last dosing, hearts were isolated from control or drug-pretreated rats and then subjected to Langendorff perfusion as described below.
Myocardial tissue samples were rinsed with ice-cold isotonic buffer (50 mM Tris, 0.32 M sucrose, 1 mM Na2EDTA, 0.2 mg/ml soybean trypsin inhibitor, 0.2 mg/ml bacitracine, 0.16 mg/ml benzamidine). Tissue homogenates were prepared by homogenizing 0.8 g of myocardial tissue in 8 ml ice-cold isotonic buffer and the homogenates were used for the preparation of mitochondrial fractions by differential centrifugation, as described in Chiu and Ko (2004). The mitochondrial pellets were resuspended in 1.5 ml of isotonic buffer containing 150 μl of 2 mg/ml soybean trypsin inhibitor and constituted the mitochondrial fractions.
Myocardial mitochondrial ATP generation capacity was measured by incubating 200 μl of nucleus-free tissue homogenate with 200 μl of substrate solution (containing 100 mM glutamate and 34 mM malate) and 20 μl ADP (2.3 mM) for 10 min at 37° C., and the ATP level were measured using an assay kit from Sigma Chemical Co. (St. Louis, Mo., USA). LDH activity was spectrophotometrically measured as described (Yim and Ko 1999).

[1] = test system: Isolated-Perfused Rat Heart; experiment: Myocardial ischemia-reperfusion injury (LDH leakage), isolated-perfused heart of young rats; assay type: in vivo; conditions: 35 days
Protocol: Male/Female adult Sprague-Dawley rats (˜10 weeks old) were maintained under a 12-h dark/light cycle at about 22° C. and allowed food and water ad libitum. Animals were randomly divided into groups, with at least 5 animals in each. In the pretreatment groups, rats were treated intragastrically with (−) Schisandrin B at a daily dose of 1 or 10 mg/kg for 35 days. Control animals received oil only (10 ml/kg). Twenty-four hours following the last dosing, hearts were isolated from control or drug-pretreated rats and then subjected to Langendorff perfusion as described below.
The heart was excised quickly and immediately immersed in ice-cold and heparinized (50 unit/ml) saline. The aorta was cannulated and then transferred to a warm and moistured chamber of the perfusion apparatus. The heart was retrogradely perfused according to Langendorff method as described (Yim and Ko 1999).
Coronary effluent was collected in 1-min fractions at increasing time intervals during the course of equilibration and reperfusion. The fractions were immediately put on ice until assay for lactate dehydrogenase (LDH) activity. The extent of LDH leakage during the reperfusion period, an indirect index of myocardial injury, was estimated by computing the area under the curve of the graph plotting the percent LDH activity (with respect to the mean pre-ischemic value measured during the equilibration period) against the reperfusion time (1-20 min), as described (Yim and Ko 1999). Immediately after the I-R procedure, heart ventricular tissue samples were obtained for biochemical analysis.

Hsp25 = experiment: Tissue Hsp25 level in young female rats (Western blot); assay type: in vivo, rat; conditions: 10 mg/kg daily, 15 days
Protocol: Female Sprague-Dawley rats (8 weeks old) were maintained under a 12-h dark/light cycle at about 22° C. and allowed food and water ad libitum. Drug treated animals received a daily bolus dose of (−) Schisandrin B, α-lipoic acid (α-LA) or α-tocopherol (α-Toc) at 10, 5 and 70 mg/kg, respectively, for 15 days. The dosages were determined with reference to the equivalent amount of crude herb prescribed for human or the daily recommended intake in health supplements. The control animals received olive oil only. Twenty-four hours after the last dose, the pentobarbital-anesthetized animals were sacrificed by cardiac excision, and brain. heart, liver and skeletal muscle tissues were obtained.
Hsp25 and Hsp70 levels was estimated by Western blot analysis using specific antibodies (anti-Hsp25, catalog #SPA-801; anti-Hsp70, catalog #SPA-812) from StressGen (Vancouver, BC, Canada) following SDS-PAGE analysis of the nuclear-free tissue homogenates, using a separating gel of 10% acrylamide as described in Ip et. al. (2001). Hsp25/27 and Hsp70 (human recombinant proteins from StressGen) and actin (bovine muscle from Sigma) were used as markers for reference. […] All immuno-blots were analyzed by densitometry, and the amounts (arbitrary units) of Hsp were normalized with reference to actin levels (arbitrary units) in the sample.

How did the “ATP generation” value (Myocardial Mitochondria; old female rats (~12 months)) turn out when `COc1cc2c(c(OC)c1OC)-c1c(cc3c(c1OC)OCO3)CC(C)C(C)C2` (single isomer, unassigned; (-)) [(−) Sch B, (−) Schisandrin B] was run?
Its value is 4.43 ± 0.10^b μmol/min/mg protein.

And the “ATP Generation, percent increase vs untreated control” value (Myocardial Mitochondria; old female rats)?
The value was “(48%)”.

And the “ATP generation” value (Myocardial Mitochondria; old male rats (~12 months))?
Its value is 3.75 ± 0.06 μmol/min/mg protein.

What about the “ATP Generation, percent increase vs untreated control” value (Myocardial Mitochondria; old male rats) of the same compound?
The value was “(11%)”.

What about the “LDH Leakage” value ([1]; I-R, female, 1 mg/kg daily) of the same compound?
Its value is 2861 ± 70.6^b AU.

And the “LDH Leakage, percent protection vs unpretreated control” value (“LDH Leakage, percent protection” below) ([1]; I-R, female, 1 mg/kg daily)?
Its value is “(31%)”.

What about the “LDH Leakage” value ([1]; I-R, female, 10 mg/kg daily) of the same compound?
The value was 2023 ± 83.1^b AU.

And the “LDH Leakage, percent protection” value ([1]; I-R, female, 10 mg/kg daily)?
The value was “(60%)”.

What about the “LDH Leakage” value ([1]; I-R, male, 1 mg/kg daily) of the same compound?
Its value is 3638 ± 125^a AU.

What about the “LDH Leakage, percent protection” value ([1]; I-R, male, 1 mg/kg daily) of the same compound?
The value was “(37%)”.

And the “LDH Leakage” value ([1]; I-R, male, 10 mg/kg daily)?
Its value is 2775 ± 55.8^a AU.

What about the “LDH Leakage, percent protection” value ([1]; I-R, male, 10 mg/kg daily) of the same compound?
The value was “(57%)”.

What about the “LDH Leakage” value ([1]; NON-I-R, female, 1 mg/kg daily) of the same compound?
The value was 776 ± 22.1 AU.

And the “LDH Leakage” value ([1]; NON-I-R, female, 10 mg/kg daily)?
The value was 813 ± 14.0 AU.

And the “LDH Leakage” value ([1]; NON-I-R, male, 1 mg/kg daily)?
Its value is 804 ± 18.0 AU.

What about the “LDH Leakage” value ([1]; NON-I-R, male, 10 mg/kg daily) of the same compound?
The value was 820 ± 13.8 AU.

And the “changes in Hsp25 level in all tissues” value (Hsp25)?
Its value is “No detectable changes”.

What about the “Heat Shock Protein Level, Hsp25” value (Hsp25; BRAIN) of the same compound?
The value was 0.16 ± 0.01 AU.

What about the “Heat Shock Protein Level, Hsp25” value (Hsp25; HEART) of the same compound?
Its value is 0.77 ± 0.05 AU.

And the “Heat Shock Protein Level, Hsp25” value (Hsp25; LIVER)?
Its value is 0.41 ± 0.02 AU.

What about the “Heat Shock Protein Level, Hsp25” value (Hsp25; SKELETAL MUSCLE) of the same compound?
Its value is 0.59 ± 0.03 AU.
